Experimental data: patent US4223041A, “Urea derivatives to treat anxiety and aggressivity” (Labaz, priority 1976, dated 1980)

Experiments:
Acute toxicity in mice = settings: mouse, in vivo
Description: Acute toxicity was determined on Swiss E.O.P.S. mice, by oral route, using the technique of LITCHFIELD and WILCOXON (J. Pharmacol. Exp. Ther. […], 96, 99).

[1] = spontaneous motoricity in the mouse; format: in vivo
Source text: This test is described in U.S. Pat. No. 3,929,869.

[2] = "Electrically-provoked combat" test (anxiolytic action); format: in vivo, mouse; settings: mice
Source text: Under certain conditions, a pair of mice reacts to an electric stimulus by a series of combats which are provoked by the anxiety felt by the animals as a result of the electric shock. This anxiety is expressed by a combat with the other animal which is rendered responsible. For this reason, the test described hereunder can be considered as a means of evaluating the anxiolytic action of a compound. Two mice which have been previously on a diet consisting only of water are placed together in a cage. They are then submitted to a series of electric impulses of an intensity varying between 40 and 80 volts according to the sensitivity of the animals. The test is first carried out with untreated animals as controls and then with the same animals treated 30 minutes before the test with a dose of the compound to be studied.
Note is taken on the number of combats engaged. The results are expressed in percentage of decrease in the number of combats engaged by the treated animals in comparison with the number of combats registered before treatment.

[3] = Action with respect to tremorine (cholinolytic properties); format: in vivo, mouse
Description: This test has been described by EVERETT (Nature, 1956, 177-238)
When injected into mice, tremorine produces peripheral cholinergic effects i.e. weeping, hypersalivation, sedation, diarrhea as well as central cholinergic effects i.e. tremors, akinesia.
Batches of 10 mice separated into individual cages, were given the compound to be studied, by oral route, 30 minutes before administration of an intraperitoneal dose of 100 mg/kg of tremorine.
Note was then taken in each batch of the percentage of animals presenting the various symptoms of tremorine-induced poisoning since at such a dose of tremorine 100% of the control animals are poisoned.
The results hereunder are expressed in percentage of mice protected against tremor at the dose of the compound of the invention which was administered: […]

[4] = Action on the cardiovascular and respiratory system; format: in vivo, rat
[5] = Anxiolytic and antiaggressive properties and separation from sedation (general statements); settings: in vivo
[6] = Potentiation of barbiturates, tranquillizers and ethanol; format: in vivo
Source text: Additional pharmacological tests carried out with the preferred compound of the invention have shown that a non-sedative dose of this compound potentiates the hypnotic effect of the barbiturates as well as the sedative effect of tranquillizers such as meprobamate and diazepam.

[7] = Aggressivity of the isolated mouse (antiaggressive activity); format: in vivo
Source text: If a male mouse is isolated in a cage for three to four weeks, it will spontaneously attack any other animal of the same species which is placed in the same cage.
Mice wer isolated for the period of time required to render them spontaneously aggressive. Two mice, one rendered aggressive and one in a normal non-aggressive state, were then placed together and note was taken of the number of attacks by the aggressive mouse which occurred over a period of three minutes.
Each batch was composed of five pairs of animals.
The aggressive animals of each batch were then treated by oral route with the compound to be studied which was administered in such a way that the aggressive animals of each batch received a higher dose than those of the preceding batch.
Thirty minutes after administration, the couples were placed together again for a further three minutes and the number of attacks noted.

[8] = traction test (balance, muscular tonus and strength); settings: mouse, in vivo; oral, mice, 60 minutes after administration; read-out: ED50 (dose which causes 50% failures in the traction test)
[9] = Influence on acetylcholine-induced hypotension and bradycardia; format: in vivo; settings: 100 mg/kg i.p., rat
Description: Similarly, at a dose of 100 mg/kg by intraperitoneal route, the preferred compound of the invention has no influence on acetylcholine-induced hypotension and bradycardia in the rat.

[10] = rota rod test (neurotoxicity); format: in vivo, mouse; settings: for % of failures in rota rod test: mice, 30 min after administration
Description: The test used was that known as the rota rod test described by BOISSIER (Therapie 1958 XIII pp. 1074-1118).
This test aims at determining the ability of mice to coordinate their movements by seeing to what extent they can remain on a roller turning at a rate of 4 revolutions per minute for two minutes. The trial was carried out thirty minutes after administration by oral route of the compound to be studied and the percentage of failures was noted.
The value of this test is twofold. Failure on the part of the animals gives a very early indication of the slightest damage to the meuromuscular functions which cannot be discerned by any other means. Secondly, this test serves as an element of comparison for drawing up index figures involving the results obtained with other tests.

[11] = Action on the pentylenetetrazole-induced seizure (anticonvulsant activity); format: in vivo, mouse; settings: Mus musculus, 3 h; 320 mg/kg oral, mice, 15 min before 125 mg/kg pentylenetetrazole; read-out: % of protection against death
Description: The purpose of this test which is carried out on mice is to determine whether the compounds of the invention, when given preventively by oral route, are capable at certain doses of protecting some of the animals against the epileptic seizure produced by a predetermined dose of pentylenetetrazole which would be 100% fatal in the absence of the compound.
The compound to be studied was administered fifteen minutes before an injection of 125 mg/kg of pentylenetetrazole and note was taken of the number of deaths occurring during the three hours following this injection. The results were expressed in percentage of protection of the animals against death at the dose studied.

[12] = Effects on α- and β-adrenergic effects provoked by epinephrine; format: in vivo, rat; settings: 200 mg/kg i.p.
[13] = mouse, in vivo, po, 1000 mg/kg
Source text: Finally, the hypnotic action of Compound A was studied in mice by means of the test of the posture reflex, the animals being kept under observation during the four hours following the oral administration of the product.

[14] = comparison at 25%-protection dose of four plates test, 175 mg/kg
[15] = 100 and 200 mg/kg i.p., anaesthetized rat

## CCCC(CCC)(CCC)NC(N)=O [Compound A, 1-(1,1-Di-n-propyl-n-butyl)-urea]
Acute toxicity in mice; 3000 mg/kg oral, 8-day observation, read-out: deaths
  mortality at 192 h: 5%
Acute toxicity in mice; oral
  LD50: > 3000 mg/kg
[1]; 175 mg/kg oral, mouse, 60 minutes, non-significant
  decrease in spontaneous motoricity: 12%
[1]; [14]
  Spontaneous motoricity (% of decrease): 12%
[1]; dose producing 80% decrease in the number of combats
  decrease in spontaneous motoricity at dose giving 80% reduction in combats: without any action on spontaneous motoricity
[2]; Mus musculus, 0.5 h, 58 mg/kg, 30 min before test, read-out: % of decrease in number of combats
  inhibition in vivo at 58 mg/kg: 50%
[2]; without action on spontaneous motoricity
  decrease in number of combats obtainable without altering spontaneous motoricity: 80%
[3]; 200 mg/kg oral, mice, 30 min before 100 mg/kg i.p. tremorine
  % of protection against tremor: 0%
[3]; 100, 300, 400 and 500 mg/kg oral
  protection against central or peripheral cholinergic effects provoked by tremorine: did not protect any animal
[4]; [15]
  cardiac frequency: does not modify
  respiratory frequency: does not modify
  systemic arterial blood pressure: does not modify
[4]; rat, in vivo
  action on the cardiovascular or respiratory system: no appreciable action
[5]
  anxiolytic and antiaggressive activity (in words): most outstanding anxiolytic and antiaggressive properties
[6]; in vivo
  potentiation of the effects of ethanol: slight potentiation
[6]; non-sedative dose
  hypnotic effect of the barbiturates: potentiates
  sedative effect of tranquillizers such as meprobamate and diazepam: potentiates
[7]; 100 mg/kg oral
  sedative effects at antiaggressive dose: entirely devoid of any sedative effects
[7]; 0.5 h, oral, isolated mouse, 30 min after administration, read-out: ED50 (50% fewer attacks)
  ED50: 142 mg/kg
[7]; 0.5 h, oral, isolated mouse, read-out: dose from which antiaggressive action is exerted
  minimal effective dose: 100 mg/kg
[8]
  TD50 at 1 h: 600 mg/kg
[9]
  influence on acetylcholine-induced bradycardia: no influence
  influence on acetylcholine-induced hypotension: no influence
[10]; 175 mg/kg oral
  % of failures in rota rod test: 0%
[10]; 600 mg/kg oral
  % of failures in rota rod test: 30%
[10]; at ED25 of four plates test
  sedative effect relative to reference products: least sedative
[10]; at the dose which provokes a 60%-decrease in the number of combats
  failures in the rota rod test: no failure
[10]; [14]
  Rota rod (% of failures): 0%
[11]
  responders at 320 mg/kg: 50%
[12]
  α-adrenergic effects provoked by epinephrine: does not modify
  β-adrenergic effects provoked by epinephrine: does not modify
[13]
  loss of the posture reflex: no loss of the posture reflex
